Measurements reported in PMC10895678 (Journal of Medicinal Chemistry, 2024).
“And” between values parts separate entries of the source, which are not always exact repeats. Equal entries are not always repeated. Where two headings read alike, the source gives them in different places.

Columns and labels:
[1] = Mouse PK, combined (cassette) dosing of BGAz-001–005; assay type: in vivo, KM mice; set-up: AUMC(0-t) / VRT(0-t) / λz: unit not given here; conditions: for AUC(0-t): read-out: AUC(0-t); for MRT last: read-out: MRT(0-t); for MRT inf: read-out: MRT(0-∞); for Vd/F: read-out: Vz/F
From the text: Methods for combined single dosing (BGAz001–005) and dosing of single compounds multiple times (BGAz004 and BGAz005) are described in detail in the Supporting Information (PK Data).
Report on PK Results of Combined Dosing with BGAz-001–005
1 Materials and instrument combined dosing
An MS2 Turnover type oscillator was purchased from IKA Work’s Guangzhou (China), and a 5415R ChromatographicanalyseswereconductedusinganAgilent1290InfinityIIhighperformanceliquidchromatography andAgilentTechnologies6470TripleQuadLC/MS.Propranolol(≥90%inpurity,internalstandard,IS)waspurchased fromtheSigmaChemicalCo.(China).Formicacid(HPLCgrade)andmethanol(HPLCgrade)werepurchasedfrom DIKMACo.(China).Allchemicalsandsolventswereanalyticalgrade.WaterwaspurifiedusingaMillipore(AK,USA) laboratoryultra-purewatersystem(0.2μmfilter).
KMmice,weighing25–35g(BeijingVitalRiverLaboratoryAnimalTechnologyCo.,Ltd.,China)wereutilisedforthe studies.The protocols were approved by the Animal Care and Use Committee, GIBH. Animals were maintained on standard animal chow and waterad libitum, in a climate-controlled room (23±1 °C 30–70% relative humidity, a minimumof tenexchangesof roomairperhouranda12hlight/darkcycle)foroneweekpriortoexperiments.
3 Pharmacokinetic studies
Compounds BGAz-001 ，BGAz-002 ，BGAz-003 ，BGAz-004 and BGAz-005 were dissolved mixed in a solution containing DMSO (2%),ethanol (4%), Cremophor EL (4%) and ddH2O (90%); Pharmacokinetic propertiesof KM (male) were determined following IV, PO and IP administration. Animals were randomly distributed into three experimentalgroups(n=4).ThePOgroupwasgivenmixedsolutionwith5mg/kgbygastricgavage.TheIVgroup was dosed with mixed solution 1mg/kg byinjection into the tail vein. The IP group was dosed with mixed solution 1mg/kg by intraperitoneal injection. After single administration, whole blood samples (100 μL) were obtained from the orbital venousplexus atthe followingtime pointsafter dosing:5, 15,30 minand 1,3, 5,8, 24hour (PO and IP groups) and at the following time points after dosing 2, 10, 30min and 1, 3, 5, 8,24 hour (IV group). Wholeblood samples were collected in heparinised tubes. The plasma fraction was immediately separated by centrifugation. The micewerehumanelyeuthanasiabycarbondioxide24hoursafterexperimentwithoutpain.
4 Plasma sample and brain sample analysis
4.1 Standard curve sample preparation
ThecompoundsweredissolvedinDMSO(2mg/mL)anddilutedwithtoseriesconcentration(methanol:H 2O,1:1,10 μL) and blank plasma (50 μL) were added to 1.5 mL tubes and vortexed for 3 min, then acetonitrile-containing internalstandard(150μL)wasaddedandvortexedforafurther5min,andsubsequentlyspuninacentrifugeat13000 […]
4.2 Plasma and preparation
Plasmasampleswerepreparedusingaproteinprecipitationmethod.Solution(10μL,methanolH 2O,1:1)andplasma samples(50μL)wereaddedto1.5mLtubesandvortexfor3min,thenacetonitrile-containinginternalstandard(150 μL)wasaddedandvortexfor5min,andsubsequentlyspuninacentrifugeat13000× gfor40minat4°C.
Aftercentrifugation,supernatant(100μL)wastransferto96wellplatesandanalysedbyLC-MS/MSusinganAgilent 1290InfinityIIHPLCandanAgilentTechnologies6470TripleQuadLC/MS.

C. glutamicum pks13 = test: MIC, resazurin assay, C. glutamicum pks13 deletion mutant; assay type: cell-based, Corynebacterium glutamicum; conditions: modified Gompertz function
[2] = IP 1 mg/kg, cassette, mean of animals
[3] = IV 1 mg/kg, cassette, mean of animals
[4] = PO 5 mg/kg, cassette, mean of animals
[5] = male, KM, mouse, plasma, IP 1 mg/kg, cassette
[6] = male, KM, mouse, plasma, IP 1 mg/kg, cassette, mean of animals
[7] = male, KM, mouse, plasma, IV 1 mg/kg, cassette
[8] = male, KM, mouse, plasma, IV 1 mg/kg, cassette, mean of animals
[9] = male, KM, mouse, plasma, PO 5 mg/kg, cassette
[10] = male, KM, mouse, plasma, PO 5 mg/kg, cassette, mean of animals

SMILES: CNCC1CC(c2ccc(OC(F)(F)F)cc2)N1Cc1ccccc1OC(F)(F)F (stereo not shown) [BGAz-005]
- AUMC(0-t) [1, 2]: 2746.024 **μg
- AUMC(0-∞) [1, 2]: 5711.413 **μg
- CLz/F [1, 2]: 2.157 L/kg
- C_last [1, 2]: 5.459 µg
- R_AUC(t/∞) [1, 2]: 83.575%
- VRT(0-t) [1, 2]: 43.817 ^2
- VRT(0-∞) [1, 2]: 202.71 ^2
- λz [1, 2]: 0.079 1/
- AUC(0-∞) ([1]; IP 1 mg/kg, cassette, summary table): 464.151 µg·h
- AUMC(0-t) [1, 3]: 2221.012 **μg
- AUMC(0-∞) [1, 3]: 3469.367 **μg
- CLz/F [1, 3]: 2.386 L/kg
- C_last [1, 3]: 2.531 µg
- R_AUC(t/∞) [1, 3]: 91.7%
- VRT(0-t) [1, 3]: 45.323 ^2
- VRT(0-∞) [1, 3]: 139.16 ^2
- Vz/F [1, 3]: 28.599 L/kg
- λz [1, 3]: 0.098 1/
- AUC(0-∞) ([1]; IV 1 mg/kg, cassette, summary table): 424.729 µg·h
- BA ([1]; PO 5 mg/kg vs IV 1 mg/kg, cassette): 72.63%
- AUMC(0-t) [1, 4]: 6391.819 **μg
- AUMC(0-∞) [1, 4]: 80528.925 **μg
- CLz/F [1, 4]: 14.928 L/kg
- C_last [1, 4]: 18.45 µg
- R_AUC(t/∞) [1, 4]: 55.825%
- VRT(0-t) [1, 4]: 47.178 ^2
- VRT(0-∞) [1, 4]: 2247.307 ^2
- λz [1, 4]: 0.017 1/
- AUC(0-∞) ([1]; PO 5 mg/kg, cassette, summary table): 1542.381 µg·h
- AUC(0-inf) ([1]; male, KM, mouse, plasma, ip, 1 mg/kg, IP 1 mg/kg, cassette, mean of animals, read-out: AUC(0-∞)): 464 ng·h/mL
- Cmax ([1]; male, KM, mouse, plasma, ip, 1 mg/kg, IP 1 mg/kg, cassette, mean of animals, read-out: Cmax): 41.9 ng/mL
- Tmax ([1]; male, KM, mouse, plasma, ip, 1 mg/kg, IP 1 mg/kg, cassette, mean of animals, read-out: Tmax): 0.646 h
- Cmax ([1]; male, KM, mouse, plasma, ip, 1 mg/kg, IP 1 mg/kg, cassette, summary table, read-out: Cmax): 41.9 ng/mL
- half-life ([1]; male, KM, mouse, plasma, ip, 1 mg/kg, IP 1 mg/kg, cassette, summary table, read-out: T1/2 (converted)): 9.34 h
- Tmax ([1]; male, KM, mouse, plasma, ip, 1 mg/kg, IP 1 mg/kg, cassette, summary table, read-out: Tmax): 0.646 h
- AUC(0-inf) ([1]; male, KM, mouse, plasma, iv, 1 mg/kg, IV 1 mg/kg, cassette, mean of animals, read-out: AUC(0-∞)): 425 ng·h/mL
- Cmax ([1]; male, KM, mouse, plasma, iv, 1 mg/kg, IV 1 mg/kg, cassette, mean of animals, read-out: Cmax): 320 ng/mL
- Tmax ([1]; male, KM, mouse, plasma, iv, 1 mg/kg, IV 1 mg/kg, cassette, mean of animals, read-out: Tmax): 0.033 h
- Cmax ([1]; male, KM, mouse, plasma, iv, 1 mg/kg, IV 1 mg/kg, cassette, summary table, read-out: Cmax): 320 ng/mL
- half-life ([1]; male, KM, mouse, plasma, iv, 1 mg/kg, IV 1 mg/kg, cassette, summary table, read-out: T1/2 (converted)): 8.05 h
- Tmax ([1]; male, KM, mouse, plasma, iv, 1 mg/kg, IV 1 mg/kg, cassette, summary table, read-out: Tmax): 0.033 h
- AUC(0-inf) ([1]; male, KM, mouse, plasma, po, 5 mg/kg, 5 mg/kg PO, cassette dosing, read-out: AUC0-inf): 1540 ng·h/mL
- Cmax ([1]; male, KM, mouse, plasma, po, 5 mg/kg, 5 mg/kg PO, cassette dosing, read-out: Cmax (Mouse, P.O.)): 43.1 ng/mL
- half-life ([1]; male, KM, mouse, plasma, po, 5 mg/kg, 5 mg/kg PO, cassette dosing, read-out: T1/2 (Mouse, P.O.) (converted)): 35.7 h
- Tmax ([1]; male, KM, mouse, plasma, po, 5 mg/kg, 5 mg/kg PO, cassette dosing, read-out: Tmax (Mouse, P.O.)): 6 h
- AUC(0-inf) ([1]; male, KM, mouse, plasma, po, 5 mg/kg, PO 5 mg/kg, cassette, mean of animals, read-out: AUC(0-∞)): 1540 ng·h/mL
- Cmax ([1]; male, KM, mouse, plasma, po, 5 mg/kg, PO 5 mg/kg, cassette, mean of animals, read-out: Cmax): 43.1 ng/mL
- Tmax ([1]; male, KM, mouse, plasma, po, 5 mg/kg, PO 5 mg/kg, cassette, mean of animals, read-out: Tmax): 6 h
- Cmax ([1]; male, KM, mouse, plasma, po, 5 mg/kg, PO 5 mg/kg, cassette, summary table, read-out: Cmax): 43.1 ng/mL
- half-life ([1]; male, KM, mouse, plasma, po, 5 mg/kg, PO 5 mg/kg, cassette, summary table, read-out: T1/2 (converted)): 35.7 h
- Tmax ([1]; male, KM, mouse, plasma, po, 5 mg/kg, PO 5 mg/kg, cassette, summary table, read-out: Tmax): 6 h
- concentration at 0.083 h [1, 5]: 27 ng/mL and 60 nM
- concentration at 0.25 h [1, 5]: 70 nM and 29.8 ng/mL
- concentration at 0.5 h [1, 5]: 80 nM and 36.3 ng/mL
- concentration at 1 h [1, 5]: 90 nM and 39.8 ng/mL
- concentration at 3 h [1, 5]: 80 nM and 33.4 ng/mL
- concentration at 5 h [1, 5]: 50 nM and 21.3 ng/mL
- concentration at 8 h [1, 5]: 40 nM and 15.4 ng/mL
- concentration at 24 h [1, 5]: 10 nM and 5.44 ng/mL
- AUC(0-t) [1, 6]: 388 ng·h/mL
- MRT last [1, 6]: 7.13 h
- MRT inf [1, 6]: 12.3 h
- Vd/F [1, 6]: 28.9 L/kg
- concentration at 0.033 h ([1]; male, KM, mouse, plasma, IV 1 mg/kg, cassette, 0.033 h): 320 ng/mL and 740 nM
- concentration at 0.167 h ([1]; male, KM, mouse, plasma, IV 1 mg/kg, cassette, 0.167 h): 330 nM and 145 ng/mL
- concentration at 0.5 h [1, 7]: 170 nM and 75.2 ng/mL
- concentration at 1 h [1, 7]: 120 nM and 50.1 ng/mL
- concentration at 3 h [1, 7]: 60 nM and 25.4 ng/mL
- concentration at 5 h [1, 7]: 40 nM and 16.1 ng/mL
- concentration at 8 h [1, 7]: 20 nM and 10.3 ng/mL
- concentration at 24 h [1, 7]: 10 nM and 5.2 ng/mL
- C0 [1, 8]: 392 ng/mL
- AUC(0-t) [1, 8]: 392 ng·h/mL
- MRT last [1, 8]: 5.5 h
- MRT inf [1, 8]: 8.24 h
- concentration at 0.083 h [1, 9]: 7.08 ng/mL and 20 nM
- concentration at 0.25 h [1, 9]: 30 nM and 11.3 ng/mL
- concentration at 0.5 h [1, 9]: 50 nM and 20.4 ng/mL
- concentration at 1 h [1, 9]: 70 nM and 32.5 ng/mL
- concentration at 3 h [1, 9]: 90 nM and 39.1 ng/mL
- concentration at 5 h [1, 9]: 90 nM and 37.6 ng/mL
- concentration at 8 h [1, 9]: 90 nM and 40.2 ng/mL
- concentration at 24 h [1, 9]: 60 nM and 24.3 ng/mL
- AUC(0-t) [1, 10]: 621 ng·h/mL
- MRT last [1, 10]: 8.45 h
- MRT inf [1, 10]: 38.7 h
- Vd/F [1, 10]: 129 L/kg
- C. glutamicum pks13 MIC (C. glutamicum pks13): 10
